The source of these data is EP4755889A1, “COMPOUND FOR DETECTING AMYLOID-BETA OLIGOMER AND METHOD FOR DIAGNOSING DEGENERATIVE BRAIN DISEASE USING SAME” (Amyloid Solution Inc., priority 2024, dated 2025).

Experiment [1] addresses T1, Aβ1-42-Aβn-(n+5) complexes (Homo sapiens, UniProt P05067).
T1 construct: full-length Aβ1-42 peptide was added to the MAP and incubated at 37 °C for 8 hours
The experiment is described as follows: Mapping Amyloid Plate (MAP): binding to complexes of Aβ1-42 with fragments. On the procedure:
A Mapping Amyloid Plate (MAP) for investigating the target site of the compound of the present disclosure on Aβ1-42 fragments or Aβ1-42 oligomers was prepared with reference to Korean Patent Application No. 10-2023-0133625, which is incorporated herein by reference in its entirety.
Briefly, to remove the bovine serum albumin coating from the plate, each well of the plate was washed three times with 200 µL of wash buffer (0.1 M sodium phosphate, 0.15 M sodium chloride, 0.05 % Tween-20, pH 7.2). Full-length and fragmented peptides of Aβ1-42 were individually dissolved in DMSO to prepare […] stock solutions, which were then diluted with binding buffer (0.1 M sodium phosphate, 0.15 M sodium chloride, 10 mM EDTA, pH 7.2) to prepare 50 µg/mL peptide solutions (5 % DMSO). 100 µL of the peptide solution was added to each well and allowed to react with the maleimide at room temperature overnight. After peptide immobilization, unbound peptides were removed by washing three times with 200 µL of wash buffer. To inactivate residual maleimide groups, 200 µL of a cysteine solution (10 µg/mL in binding buffer) was added to each well and incubated at room temperature for 1 hour. After cysteine capping, all wells of the plate were washed three times with 200 µL of wash buffer.
Two conditions were prepared to confirm whether the compound of the present disclosure targets the structure or the sequence of Aβ oligomers. First, the compound of the present disclosure (50 µM) was prepared in binding buffer (10 % DMSO), and 100 µL of the compound was added to the MAP and treated for 24 hours at room temperature. After incubation, all wells were washed three times with 200 µL of wash buffer. Second, full-length Aβ1-42 peptide was added to the MAP and incubated at 37 °C for 8 hours to form complexes between full-length Aβ1-42 and fragmented Aβ1-42. […] The fluorescence intensity of both plates was measured using a microplate reader (λex = 285 nm/λem = 475 nm). […]

In experiment [2] the target is T2, Aβ1-42 oligomers (Homo sapiens, UniProt P05067).
T2 construct: Aβ1-42 peptide was aggregated at 37 °C for 8 hours
The experiment is described as follows: Selectivity for Aβ variant oligomers (fluorescence). It counts as binding. To be noted: oligomeric Aβ variants 10 µM each; IK15j (10 µM). As to the method:
Accordingly, Aβ variant oligomers were prepared and incubated with IK15j to investigate the selectivity of the compound for Aβ variants. Briefly, samples of oligomeric Aβ1-40, Aβ1-42, and AβpE3-42 (10 µM each) were each treated with IK15j (10 µM), and the fluorescence intensity of each Aβ variant sample was measured.

Experiment [3] concerns insoluble plaques in the 5XFAD mouse brain. The experiment is described as follows: Brain staining of AD mouse model with compound and anti-Aβ antibody 6E10. As to conditions: 5XFAD brain sections; co-staining with 6E10. On the procedure: Mouse brain tissues were fixed in 4 % paraformaldehyde (Biosesang, Korea) at 4 °C overnight and then cryoprotected by immersion in 30 % sucrose for 48 hours. Brain sections (25 µm) were cut using a cryostat (CM1860, Leica) and mounted on slides. The brain tissue sections were treated with the compound of the present disclosure (500 µM) overnight at room temperature. After washing with 1X PBS, antigen retrieval for the fixed brain sections was performed in 1X PBS (Gibco, Korea) containing 1 % SDS (Biosesang, Korea) for 10 minutes, followed by blocking with 20 % horse serum in 1X PBS. After blocking for 1 hour, the slides were incubated with mouse monoclonal antibody 6E10 (1:200, BioLegend, USA) at room temperature for 1 hour. […] After staining the cortical and hippocampal regions of the fixed brain, each brain slide was visualized using a fluorescence microscope (DM500, Leica) equipped with filter cubes containing excitation and emission filters: N2.1 filter cube for detecting 6E10 staining (Excitation filter: BP 515-560; Dichromatic mirror: 580; Emission filter: LP 590) and L5 filter cube for detecting the compound of the present disclosure (Excitation filter: BP 480/40; Dichromatic mirror: 505; Emission filter: BP 527/30). […]

Setting [4] is: MAP incubated with additional Aβ1-42 for 8 hours, then IK15j for 24 hours.

T1 sequence (P05067 672-713, one chain of several): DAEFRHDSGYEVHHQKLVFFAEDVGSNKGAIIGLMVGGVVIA
T2 sequence (P05067 672-713): as the sequence (P05067 672-713, one chain of several) above

For `Cc1ccc2c(c1)c(-c1ccccc1)cn1c(C)cc(C#N)c21` [IK15j, 3,8-dimethyl-6-phenylpyrrolo[2,1-a]isoquinoline-1-carbonitrile], the “binding affinity for the N-terminus of Aβ, Aβ1-8 (DAEFRHDS)” value in experiment [1] (MAP complexes) is given as “moderate binding affinity”. Further, in experiment [1] (setting [4]), the “binding to complexes of Aβ1-42 with Aβ19-25 (FFAEDVG) and Aβ35-42 (MVGGVVIA)” value is reported as “bound strongly”; the “overall signal in the presence of Aβ1-42-Aβn-(n+5) complexes” value is reported as “increased”. Further, the “fluorescence intensity in the presence of Aβ1-42 oligomers compared to Aβ1-40 or AβpE3-42 oligomers” value in experiment [2] is on record as “increased markedly”. In addition, the “signal in hippocampal and cortical regions (brain staining)” value in experiment [3] is recorded as “no signal”.
